Laboratory results as given in patent publication US20100028414A1, “COMBINATION OF TYROSINE KINASE INHIBITOR AND HER-2/NEU FOR CANCER THERAPY” (priority 2004, published 2010).

How the values were obtained:
[1] = tested on: BT474 human breast cancer cells; assay: In vitro growth inhibition assay ([3H] thymidine incorporation), BT474; type: cell-based; settings: 0.01 μM Lapatinib, 50 μg/ml pAb, 72 h, FIG. 11A
Protocol: (§1) The antiproliferative effect of vaccine induced anti HER2 polyclonal antibodies (pAb) in combination with Lapatinib was evaluted on human breast cancer cells overexpressing the HER2/neu molecule (BT474 and SKBR3 cells) using the [^3H] thymidine incorporation method. Briefly, 10e4 cells were seeded in 200 μl, in triplicate, in 96-w plates and incubated for 72 h at 37° C. in • 1) medium; • 2) medium containing Lapatinib alone (0.01 μM); • 3) medium containing pAb alone (50 μg/ml); • 4) medium containing pre-immune pAb (TA2021) (50 μg/ml); • 5) a combination of (2) Lapatinib (0.01 μM ) and (3) pAb (50 μg/ml); or • 6) a combination of (2) Lapatinib (0.01 μM ) and (4) pre-immune pAb (TA2021) (50 μg/ml).
(§2) 1 μCi of [^3H] Thymidine (5 Ci/mmol; Amersham) was added for an additional 24 h after which cells were harvested by trypsinisation onto filter plates and the incorporated radioactivity was counted in a beta counter. Results were expressed in cpm and the percentage of growth inhibition was calculated referring to the medium.

phospho-Erk1/2 = assay: Western blot of activated phospho-Erk1/2, BT474 cells; type: cell-based, human; settings: 72 hr, FIG. 13
Protocol: (§3) To assess the levels of various proteins in cells, whole cell extracts were prepared by scraping cells off petri dishes, washing the cell pellet twice in phosphate buffered saline (PBS), and then resuspending the pellet in two-packed-cell volumes of RIPA buffer(150 mM NaCl, 50 mM Tris-HCl, pH 7.5, 0.25% (w/v) deoxycholate, 1% NP-40, 5 mM sodium orthovanadate, 2 mM sodium fluoride, and a protease inhibitor cocktail). Protein concentrations were determined using a modification of the Bradford method (Bio-Rad Laboratory). […] The immunoprecipitates were separated by 4-15% gradient SDS-polyacrylamide […] gel electrophoresis (SDS-PAGE), and ErbB receptors were detected by Western Blot with anti-ErbB receptor antibodies.
(§4) Steady state levels of Survivin, total ErbB2, phosphorylated ErbB2 (pErbB2 or pTyr), total Erk1/2 , activated Erk1/2 (p-Erk), total pErbB3, activated pErbB3 (pErbB3), total AKT protein and activated Akt (p-Akt) protein were assessed by Western blot. Levels of pErbB2 were assessed using an antibody that bound to multiple tyrosine-phosphorylated forms of ErbB2 (i.e., the antibody was not phosphorylation-site specific). […]
(§5) For Western blot, equal amounts of proteins were resolved by either 7.5% or 4-15% gradient SDS polyacrylamide gel electrophoresis under reducing conditions. […] Efficiency and equal loading of proteins was evaluated by Ponceau S staining. […]

phospho-ErbB2 (p-ErbB2) = target: T1, phospho-ErbB2 (p-ErbB2) (Homo sapiens, UniProt P04626); assay: Western blot of activated phospho-ErbB2, BT474 cells; type: cell-based; settings: lapatinib 0.1 μM, pAb 100 μg/ml, trastuzumab 10 μg/ml, 72 hr, FIG. 12A bottom
T1 construct: whole cell extracts were prepared by scraping cells off petri dishes; host or cells: BT474
Protocol: as §3, §4, §5

phospho-Akt = assay: Western blot of activated phospho-Akt, BT474 cells; type: cell-based, human; settings: 72 hr, FIG. 13
Protocol: as §3, §4, §5

BT474 cells = assay: Apoptosis by annexin V staining and flow cytometry, BT474; type: cell-based, human; settings: lapatinib 0.1 μM, pAb 100 μg/ml, trastuzumab 10 μg/ml, 72 hr, FIG. 12A top
Protocol: After harvesting the cells with trypsin-EDTA, 5000 cells in 50 μl were sampled on 96-well microplates. The cells were stained directly in the microplate with Annexin V-PE and Nexin 7-AAD in 1× Nexin Buffer in a 200 μl final reaction volume. After incubating for 20 minutes at room temperature, the reaction samples were ready to be acquired in the Guava PCA-96-system (Guava Technology, Inc., Hayward, Calif. USA).
7-AAD binds to cellular nuclear material after cellular membranes break down in late apoptosis. Annexin-V staining indicates early apoptotic changes that precede the loss of cellular membrane integrity. Use of Annexin-V in conjunction with 7-amino-actinomycin D (7-AAD) thus can identify both early and late apoptotic cells.
Flow cytometry results were graphed as dot plot results (not shown) with annexin V on the X-axis and 7-AAD on the Y-axis. Low annexin V and low 7-AAD represented viable cells; low annexin V and high 7-AAD indicated nuclear debris; cells with high annexin V staining indicated apoptotic cells.

[2] = tested on: SKBR3 human breast cancer cells; assay: In vitro growth inhibition assay ([3H] thymidine incorporation), SKBR3; type: cell-based; settings: 0.01 μM Lapatinib, 50 μg/ml pAb, 72 h, FIG. 11B
Protocol: as §1, §2

survivin = assay: Western blot of steady state survivin protein, BT474 cells; type: cell-based, human; settings: lapatinib 0.1 μM, pAb 100 μg/ml, trastuzumab 10 μg/ml, 72 hr, FIG. 12A bottom
Protocol: as §3, §4, §5

total ErbB2 = target: T2, total ErbB2 (Homo sapiens, UniProt P04626); assay: Western blot of total ErbB2, BT474 cells; type: cell-based; settings: lapatinib 0.1 μM, pAb 100 μg/ml, trastuzumab 10 μg/ml, 72 hr, FIG. 12A bottom
T2 construct: whole cell extracts were prepared by scraping cells off petri dishes; host or cells: BT474
Protocol: as §3, §4, §5

T1 sequence (P04626 23-1255): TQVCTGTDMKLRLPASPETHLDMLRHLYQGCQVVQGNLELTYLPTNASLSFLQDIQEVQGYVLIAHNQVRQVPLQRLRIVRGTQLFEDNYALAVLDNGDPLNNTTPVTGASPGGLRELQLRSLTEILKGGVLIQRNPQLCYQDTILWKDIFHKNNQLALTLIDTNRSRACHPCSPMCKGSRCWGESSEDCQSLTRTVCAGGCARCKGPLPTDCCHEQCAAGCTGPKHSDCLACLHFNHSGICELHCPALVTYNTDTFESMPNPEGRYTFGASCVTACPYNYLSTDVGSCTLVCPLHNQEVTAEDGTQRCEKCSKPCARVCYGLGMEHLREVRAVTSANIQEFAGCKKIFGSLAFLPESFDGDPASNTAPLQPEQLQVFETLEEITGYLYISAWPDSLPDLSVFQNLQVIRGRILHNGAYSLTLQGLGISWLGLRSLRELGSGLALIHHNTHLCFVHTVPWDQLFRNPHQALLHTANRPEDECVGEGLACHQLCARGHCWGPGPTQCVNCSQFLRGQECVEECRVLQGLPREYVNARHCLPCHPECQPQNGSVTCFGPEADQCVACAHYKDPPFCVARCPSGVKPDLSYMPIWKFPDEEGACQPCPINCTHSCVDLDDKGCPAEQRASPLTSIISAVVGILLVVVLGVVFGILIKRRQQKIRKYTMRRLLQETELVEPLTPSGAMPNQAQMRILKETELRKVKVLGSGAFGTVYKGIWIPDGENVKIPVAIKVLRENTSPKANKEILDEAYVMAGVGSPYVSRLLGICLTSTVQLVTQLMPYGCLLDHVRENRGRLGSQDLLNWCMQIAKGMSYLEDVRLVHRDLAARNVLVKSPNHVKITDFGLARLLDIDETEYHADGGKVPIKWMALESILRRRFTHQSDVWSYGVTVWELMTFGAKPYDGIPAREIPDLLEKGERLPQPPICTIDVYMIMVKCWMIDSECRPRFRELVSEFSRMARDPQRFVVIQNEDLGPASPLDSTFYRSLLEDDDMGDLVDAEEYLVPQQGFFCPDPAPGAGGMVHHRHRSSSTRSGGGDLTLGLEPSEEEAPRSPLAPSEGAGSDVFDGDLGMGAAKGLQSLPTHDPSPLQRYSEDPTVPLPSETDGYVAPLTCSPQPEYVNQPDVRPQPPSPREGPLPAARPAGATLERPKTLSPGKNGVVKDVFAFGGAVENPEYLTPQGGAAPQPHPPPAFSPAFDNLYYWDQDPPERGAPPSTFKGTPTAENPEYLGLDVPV
T2 sequence (P04626 23-1255): as above

steady-state levels of activated, phosphorylated ErbB2 protein (pErbB2) (phospho-ErbB2 (p-ErbB2)): inhibited
total ErbB2 protein (total ErbB2): without affecting total ErbB2 protein
SMILES: CS(=O)(=O)CCNCc1ccc(-c2ccc3ncnc(Nc4ccc(OCc5cccc(F)c5)c(Cl)c4)c3c2)o1 [lapatinib, N-{3-Chloro-4-[(3-fluorobenzyl)oxy]phenyl}-6-[5-({[2-(methanesulphonyl)ethyl]amino}methyl)-2-furyl]-4-quinazolmamine]
growth inhibition [1]: only modest growth inhibition
steady state levels of pErk1/2 (phospho-Erk1/2): reduced
steady state levels of pAkt (phospho-Akt): reduced
apoptosis (BT474 cells): slight increase in apoptosis
growth inhibition [2]: only modest growth inhibition
survivin protein expression (survivin): inhibited
